Common to all, as to format: biochemical
In one experiment the target is T1, Cl^- r (Homo sapiens, UniProt P00736).
T1 construct: Cl^- r^f
T1 sequence (P00736 464-705 limits assumed): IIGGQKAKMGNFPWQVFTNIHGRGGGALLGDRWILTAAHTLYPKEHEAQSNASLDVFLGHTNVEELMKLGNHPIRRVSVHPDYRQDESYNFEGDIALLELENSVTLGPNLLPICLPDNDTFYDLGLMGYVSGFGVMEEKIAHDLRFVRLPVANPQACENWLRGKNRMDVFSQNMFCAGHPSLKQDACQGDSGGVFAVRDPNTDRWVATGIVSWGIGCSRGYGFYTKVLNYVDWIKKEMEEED
T1 sequence (P00736 18-463 partner limits assumed): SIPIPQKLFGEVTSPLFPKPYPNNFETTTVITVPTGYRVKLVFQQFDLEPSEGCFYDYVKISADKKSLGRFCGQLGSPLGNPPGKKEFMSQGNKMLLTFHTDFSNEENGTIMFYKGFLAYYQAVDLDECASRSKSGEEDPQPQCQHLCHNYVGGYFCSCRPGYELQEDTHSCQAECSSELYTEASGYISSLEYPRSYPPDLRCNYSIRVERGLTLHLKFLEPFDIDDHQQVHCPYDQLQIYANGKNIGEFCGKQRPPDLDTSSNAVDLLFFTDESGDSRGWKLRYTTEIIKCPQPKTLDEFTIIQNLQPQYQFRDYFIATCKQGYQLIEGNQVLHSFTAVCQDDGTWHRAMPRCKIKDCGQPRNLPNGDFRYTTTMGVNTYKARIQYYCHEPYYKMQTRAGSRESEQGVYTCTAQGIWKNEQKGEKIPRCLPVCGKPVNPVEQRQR
Put plainly: Inactivation rate of complement protein C1r. The settings on record: Table II; pH 7.5, 25° C; [I] 4.6 to 470 μM; read-out: kobs/[I]. Here is the method: (§1) Inactivation rates of serine proteases by substituted isocoumarins were measured by the incubation method. An aliquot of inhibitor (25 or 50 μl) in Me2 SO was added to a buffered enzyme solution (0.01-2.3 μM) to initiate the inactivation. Aliquots (50 μl) were withdrawn at various intervals and the residual enzymatic activity was measured. Me2 SO concentration in the reaction mixture was 8-12% (v/v). 0.1 Hepes, 0.01M CaCl2, pH 7.5 buffer was utilized for trypsin and coagulation enzymes. 0.1M Hepes, 0.5M NaCl, pH 7.5 was utilized for other serine proteases. The inhibitor concentrations are shown in all the tables. Peptide thioesters or peptide nitroanilides with appropriate sequence were used as substrates for various serine proteases. All peptide thioester hydrolysis rates were measured with assay mixtures containing 4,4'-dithiodipyridine (ε324 =19800M^-1 cm^-1; Grasetti & Murray, Arch. Biochem. Biophys. 119, pp 41-49 (1967)). Peptide 4-nitroanilide nitroanilide hydrolysis was measured at 410 nm (ε410 =8800M^-1 cm^-1; Erlanger et al., Arch. Biochem. Biophys. 95, pp 271-278 (1961)). First order inactivation rate constant (kobs) were obtained from plots of ln (vt /vo) vs time, and the correlation coefficients were greater than 0.98.
^a Conditions were 0.1M Hepes, 0.5M NaCl, pH 7.5, 8-10% Me2 SO
and 25° C. Inactivation rates were measured by incubation method.
Enzyme concentrations were as follows: protein D, 1-9 μM; C2, 0.7-1
μM; B, 1.8 μM; Bb, 0.3-0.8 μM; Cl^- s, 0.07 μM; Cl^-

The subject of experiment [1] is T2, human Q-31 tryptase (Homo sapiens).
T2 construct: human cytotoxic lymphocyte Q31 tryptase; endogenous in cells; host or cells: human cytotoxic lymphocyte Q31
Kind of experiment: Inactivation rate of human Q-31 tryptase. The settings on record: Table VII; pH 7.5, 25° C; [I] 3 to 500 μM; read-out: kobs/[I]. Here is the method: as §1
^a Inactivation rates were measured at 0.1M Hepes, 0.01M CaCl2,
pH 7.5, 8% Me2 SO and 25° C. by incubation method. ZArg-SBzl
(74-85 μM) was used as the substrate to monitor the residual enzymatic

The next experiment deals with T3, bovine factor Xa (Bos taurus, UniProt P00743).
T3 construct: bovine factor Xa
T3 sequence (P00743 234-492 limits assumed): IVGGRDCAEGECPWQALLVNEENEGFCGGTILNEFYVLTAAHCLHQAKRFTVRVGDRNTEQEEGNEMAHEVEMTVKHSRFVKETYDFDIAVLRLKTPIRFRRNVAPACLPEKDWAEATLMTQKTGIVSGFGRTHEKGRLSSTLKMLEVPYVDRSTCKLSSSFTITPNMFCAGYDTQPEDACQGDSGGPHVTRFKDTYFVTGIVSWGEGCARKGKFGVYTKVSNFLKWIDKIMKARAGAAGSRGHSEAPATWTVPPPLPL
T3 sequence (P00743 41-180 partner limits assumed): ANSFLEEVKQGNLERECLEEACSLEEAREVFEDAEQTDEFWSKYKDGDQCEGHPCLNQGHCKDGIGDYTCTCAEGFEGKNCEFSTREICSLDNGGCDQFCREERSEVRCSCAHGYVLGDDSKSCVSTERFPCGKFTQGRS
Kind of experiment: Inactivation rate of bovine factor Xa. The settings on record: Table I; pH 7.5, 25° C; [I] 0.4 to 310 μM; read-out: kobs/[I].

Another experiment addresses T4, human factor XIa (Homo sapiens, UniProt P03951).
T4 construct: human factor XIa
Kind of experiment: Inactivation rate of human factor XIa. The following applies: pH 7.5, 25° C, read-out: kobs/[I]. Here is the method: as §1
^a Conditions were as 0.1M Hepes, 0.01M CaCl2, pH 7.5 and 8-12%
Me2 SO and 25° C. Rate constants were measured by incubation
method unless otherwise noted. An aliquot of inhibitor was added to an
enzyme solution and aliquots removed with time and assayed for remaining
enzymatic activity. Firstorder rate constants, kobs were obtained
from the plots of ln(vt /vo) versus time.
^a Inhibition rates were measured in 0.1M Hepes, 0.01M CaCl2, pH
7.5 buffer, 8% Me2 SO and at 25° C.

The target in experiment [2] is T5, porcine pancreatic elastase (PPE) (Sus scrofa, UniProt P00772).
T5 construct: from tissue; host or cells: porcine pancreas (from the name)
T5 sequence (P00772 27-266): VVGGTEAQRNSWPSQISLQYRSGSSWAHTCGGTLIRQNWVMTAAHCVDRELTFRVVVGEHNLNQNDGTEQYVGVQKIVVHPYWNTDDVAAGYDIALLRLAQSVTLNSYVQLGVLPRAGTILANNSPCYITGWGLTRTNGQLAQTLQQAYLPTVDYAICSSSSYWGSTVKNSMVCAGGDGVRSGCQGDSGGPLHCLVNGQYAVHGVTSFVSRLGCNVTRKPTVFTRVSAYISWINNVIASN
Kind of experiment: Inactivation of porcine pancreatic elastase (PPE). The following applies: pH 7.5, 25° C, read-out: kobs/[I].
Procedure: (§2) Inactivation rates of serine proteases by substituted isocoumarins were measured by the incubation method. An aliquot of inhibitor (25 or 50 μl) in Me2 SO was added to a buffered enzyme solution (0.01-2.3 μM) to initiate the inactivation. Aliquots (50 μl) were withdrawn at various intervals and the residual enzymatic activity was measured. Me2 SO concentration in the reaction mixture was 8-12% (v/v). 0.1 Hepes, 0.01M CaCl2, pH 7.5 buffer was utilized for trypsin and coagulation enzymes. 0.1M Hepes, 0.5M NaCl, pH 7.5 was utilized for other serine proteases. […] Peptide thioesters or peptide nitroanilides with appropriate sequence were used as substrates for various serine proteases. All peptide thioester hydrolysis rates were measured with assay mixtures containing 4,4'-dithiodipyridine (ε324 =19800M^-1 cm^-1 ; Grasetti & Murray, Arch. Biochem. Biophys. 119, pp 41-49 (1967)). Peptide 4-nitroanilide nitroanilide hydrolysis was measured at 410 nm (ε410 =8800M^-1 cm^-1 ; Erlanger et al., Arch. Biochem. Biophys. 95, pp 271-278 (1961)). First order inactivation rate constant (kobs) were obtained from plots of ln (vt /vo) vs time, and the correlation coefficients were greater than 0.98.
(§3) ^a Inactivation rates were measured at 0.1M Hepes, 0.5 NaCl, pH 7.5,
(§4) 8-12% Me2 SO and 25° C. by incubation method.
(§5) ^a Inhibition rates were measured in 0.1M Hepes, 0.05M NaCl, pH 7.5
buffer, 8-9% Me2 SO and at 25° C.
(§6) ^a Inhibition constants were in 0.1M Hepes, 0.5M NaCl, pH 7.5 buffer,
8-9% Me2 SO and at 25° C.
(§7) ^a Inhibition rates were measured in 0.1M Hepes, 0.5M NaCl, 2.5%
Me2 SO, pH 7,5 and at 25° C.
(§8) ^a Inhibition was measured in 0.1M Hepes, 0.5M NaCl, pH 7.5 buffer,
(§9) 5-10% Me2 SO and at 25° C. Suc--Val--Pro--Phe--NA (0.48 mM)
(§10) was used as the substrate for chymotrypsin and cat G.
(§11) ^a Inhibition rates were measured in 0.1M Hepes, 0.5M NaCl, pH 7.5

For experiment [3], the target named is T6, human leukocyte elastase (HLE) (Homo sapiens, UniProt P08246).
T6 construct: from tissue; host or cells: human leukocytes (from the name)
T6 sequence (P08246 30-267): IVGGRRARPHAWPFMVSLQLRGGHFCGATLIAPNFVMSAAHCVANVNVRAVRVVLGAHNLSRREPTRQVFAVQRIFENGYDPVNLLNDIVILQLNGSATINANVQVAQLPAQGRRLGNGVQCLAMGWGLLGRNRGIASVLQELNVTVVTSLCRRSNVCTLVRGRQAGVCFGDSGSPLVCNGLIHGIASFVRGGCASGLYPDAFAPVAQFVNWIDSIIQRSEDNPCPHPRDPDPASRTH
Put plainly: Inactivation of human leukocyte elastase (HLE).
Procedure: as §2, §3, §4, §5
buffer, 8-9% Me2 SO and at 25° C.
as §6
8-9% Me2 SO and at 25° C.
as §7
Me2 SO, pH 7,5 and at 25° C.
as §8, §9, §10, §11

The next experiment concerns the target T7, human plasmin (Homo sapiens, UniProt P00747).
T7 construct: human plasmin; from tissue; host or cells: human plasma
Kind of experiment: Inactivation rate of human plasmin. The following applies: read-out: kobs/[I].

Where [4] appears, read: Table IV, pH 7.5, 25° C, [I] 0.001 to 0.18 mM, read-out: kobs/[I].
[5] abbreviates: Table VI, pH 7.5, 25° C, [I] 4 to 330 μM.

Where two headings read alike, the source gives them in different places.

T7 sequence (P00747 581-810 limits assumed): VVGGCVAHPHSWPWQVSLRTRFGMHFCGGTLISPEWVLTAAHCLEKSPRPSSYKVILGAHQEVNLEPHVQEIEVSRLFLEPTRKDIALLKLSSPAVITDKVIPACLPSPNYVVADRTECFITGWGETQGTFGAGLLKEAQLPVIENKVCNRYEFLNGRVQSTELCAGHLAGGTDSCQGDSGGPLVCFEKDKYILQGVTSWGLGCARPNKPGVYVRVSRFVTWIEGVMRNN
T7 sequence (P00747 97-580 partner limits assumed): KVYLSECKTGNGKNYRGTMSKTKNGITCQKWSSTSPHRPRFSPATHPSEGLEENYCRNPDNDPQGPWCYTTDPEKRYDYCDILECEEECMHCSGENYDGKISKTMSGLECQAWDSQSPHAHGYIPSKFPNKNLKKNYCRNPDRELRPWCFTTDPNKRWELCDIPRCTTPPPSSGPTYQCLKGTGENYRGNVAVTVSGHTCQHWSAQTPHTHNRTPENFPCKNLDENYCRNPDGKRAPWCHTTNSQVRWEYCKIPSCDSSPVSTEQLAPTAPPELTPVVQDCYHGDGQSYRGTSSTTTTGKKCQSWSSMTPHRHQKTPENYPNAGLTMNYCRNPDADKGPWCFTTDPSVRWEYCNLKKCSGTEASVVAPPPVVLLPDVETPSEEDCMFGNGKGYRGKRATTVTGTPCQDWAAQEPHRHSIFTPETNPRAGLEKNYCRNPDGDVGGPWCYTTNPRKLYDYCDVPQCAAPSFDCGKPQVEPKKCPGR
T2 sequence (P12544 29-262): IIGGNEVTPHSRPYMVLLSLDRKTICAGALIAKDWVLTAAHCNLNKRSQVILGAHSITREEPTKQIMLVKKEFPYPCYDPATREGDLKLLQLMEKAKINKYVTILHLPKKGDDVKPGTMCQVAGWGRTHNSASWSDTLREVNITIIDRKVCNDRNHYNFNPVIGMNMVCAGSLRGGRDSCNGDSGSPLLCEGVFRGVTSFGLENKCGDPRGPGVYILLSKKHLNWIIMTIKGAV
T4 sequence (P03951 388-625 limits assumed): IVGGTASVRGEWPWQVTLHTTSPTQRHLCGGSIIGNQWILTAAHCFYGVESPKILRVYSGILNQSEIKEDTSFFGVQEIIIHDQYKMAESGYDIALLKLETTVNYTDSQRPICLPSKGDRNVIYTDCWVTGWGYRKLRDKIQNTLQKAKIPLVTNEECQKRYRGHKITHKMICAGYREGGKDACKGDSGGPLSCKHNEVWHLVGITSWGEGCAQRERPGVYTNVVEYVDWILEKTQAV
T4 sequence (P03951 19-387 partner limits assumed): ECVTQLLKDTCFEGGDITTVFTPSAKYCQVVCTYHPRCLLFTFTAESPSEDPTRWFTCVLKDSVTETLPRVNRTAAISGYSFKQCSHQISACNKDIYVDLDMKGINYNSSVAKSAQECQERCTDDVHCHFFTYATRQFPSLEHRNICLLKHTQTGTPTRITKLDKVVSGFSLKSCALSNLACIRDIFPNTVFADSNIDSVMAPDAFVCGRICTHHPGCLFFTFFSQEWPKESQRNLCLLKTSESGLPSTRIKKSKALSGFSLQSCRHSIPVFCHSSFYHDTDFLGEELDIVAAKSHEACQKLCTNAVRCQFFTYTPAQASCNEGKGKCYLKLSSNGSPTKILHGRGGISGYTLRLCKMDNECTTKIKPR

Consider `O=c1oc(Cl)c(Cl)c2ccccc12` [3,4-dichloroisocoumarin, reference compound], for which the kinact/KI at Cl^- r is 42 M⁻¹ s⁻¹; in experiment [1], 29 M⁻¹ s⁻¹.
On to `N=C(N)SCCOc1oc(=O)c2ccccc2c1Cl` [3-(2-isothiureidoethoxy)-4-chloroisocoumarin], for which the kinact/KI amounted to 5600 M⁻¹ s⁻¹ at bovine factor Xa; 44000 M⁻¹ s⁻¹ at human factor XIa (Table I, [I] 3 to 330 μM); 270 M⁻¹ s⁻¹ in experiment [2] (Table IV, [I] 0.01 to 0.51 mM); 220 M⁻¹ s⁻¹ in experiment [3] (setting [4]).
On to `NCCCOc1oc(=O)c2ccccc2c1Cl` [3-(3-aminopropoxy)-4-chloroisocoumarin], for which the kinact/KI came out at 160 M⁻¹ s⁻¹ on bovine factor Xa; 380 M⁻¹ s⁻¹ at human factor XIa (Table I, [I] 3 to 330 μM); 70 M⁻¹ s⁻¹ in experiment [2] (Table IV, [I] 0.01 to 0.51 mM); 860 M⁻¹ s⁻¹ in experiment [3] (setting [4]); 770 M⁻¹ s⁻¹ on human plasmin (setting [5]).
As for `N=C(N)SCCCOc1oc(=O)c2ccccc2c1Cl` [3-(3-isothiureidopropoxy)-4-chloroisocoumarin], the kinact/KI at bovine factor Xa worked out at 220 M⁻¹ s⁻¹; on human factor XIa (Table I, [I] 3 to 330 μM), 47000 M⁻¹ s⁻¹; at Cl^- r it was 6610 M⁻¹ s⁻¹; in experiment [2] (Table IV, [I] 0.01 to 0.51 mM), 70 M⁻¹ s⁻¹; in experiment [3] (setting [4]), 2000 M⁻¹ s⁻¹; in experiment [1], 12800 M⁻¹ s⁻¹.
As for `N=C(N)SCCCOc1oc(=O)c2cc(N)ccc2c1Cl` [7-amino-4-chloro-3-(3-isothiureidopropoxy)isocoumarin], the kinact/KI on bovine factor Xa amounted to 1640 M⁻¹ s⁻¹; at human factor XIa (Table I, [I] 3 to 330 μM), 22000 M⁻¹ s⁻¹; on Cl^- r, 1320 M⁻¹ s⁻¹; in experiment [2] (Table IV, [I] 0.01 to 0.51 mM), 1 M⁻¹ s⁻¹; in experiment [3] (setting [4]), 130 M⁻¹ s⁻¹; at human plasmin (setting [5]), 4340 M⁻¹ s⁻¹. Besides, the kinact/KI in experiment [1] was determined as 1960 M⁻¹ s⁻¹.
Regarding `CCOc1oc(=O)c2cc(NC(=N)N)ccc2c1Cl` [7-guanidino-3-ethoxy-4-chloroisocoumarin, 7-guanidino-4-chloro-3-ethoxyisocoumarin], the kinact/KI was 26700 M⁻¹ s⁻¹ at bovine factor Xa; 60000 M⁻¹ s⁻¹ on human factor XIa (Table I, [I] 3 to 330 μM); 239 M⁻¹ s⁻¹ at Cl^- r; 2300 M⁻¹ s⁻¹ in experiment [2] (Table IV, [I] 0.01 to 0.51 mM); 81000 M⁻¹ s⁻¹ in experiment [3] (setting [4]); 12300 M⁻¹ s⁻¹ at human plasmin (setting [5]). Also, the kinact/KI in experiment [1] was 6180 M⁻¹ s⁻¹.
For `COc1cc2ccc(NC(=N)N)cc2c(=O)o1` [7-guanidino-3-methoxyisocoumarin], the kinact/KI at bovine factor Xa amounted to 460 M⁻¹ s⁻¹; on human factor XIa (Table I, [I] 3 to 330 μM) it was 1400 M⁻¹ s⁻¹; in experiment [2] (Table IV, [I] 0.01 to 0.51 mM) it was 55 M⁻¹ s⁻¹; in experiment [3] (setting [4]), 320 M⁻¹ s⁻¹; on human plasmin (setting [5]), 320 M⁻¹ s⁻¹.
Consider `N=C(N)Nc1ccc2c(Cl)c(OCCc3ccccc3)oc(=O)c2c1` [7-guanidino-4-chloro-3-(2-phenylethoxy)isocoumarin], for which the kinact/KI on bovine factor Xa turned out to be 96000 M⁻¹ s⁻¹; at human factor XIa (Table I, [I] 3 to 330 μM), 20000 M⁻¹ s⁻¹; on Cl^- r, 342 M⁻¹ s⁻¹; in experiment [2] (Table IV, [I] 0.01 to 0.51 mM) it was 5.7 M⁻¹ s⁻¹; in experiment [3] (setting [4]), 73 M⁻¹ s⁻¹; on human plasmin (setting [5]), 4140 M⁻¹ s⁻¹. Further, the kinact/KI in experiment [1] is 1880 M⁻¹ s⁻¹.
Turning to `COc1oc(=O)c2cc(NC(=N)N)ccc2c1Cl` [7-guanidino-4-chloro-3-methoxyisocoumarin], the kinact/KI came to 3100 M⁻¹ s⁻¹ at bovine factor Xa; 36200 M⁻¹ s⁻¹ at human factor XIa (Table I, [I] 3 to 330 μM); 75 M⁻¹ s⁻¹ on Cl^- r; 860 M⁻¹ s⁻¹ in experiment [2] (Table IV, [I] 0.01 to 0.51 mM); 6400 M⁻¹ s⁻¹ in experiment [3] (setting [4]); 3500 M⁻¹ s⁻¹ on human plasmin (setting [5]). Further, in experiment [1], the kinact/KI is 6620 M⁻¹ s⁻¹.
Consider `N=C(N)SCCOc1oc(=O)c2cc(NC(=O)Nc3ccccc3)ccc2c1Cl` [PhNHCONH-CiTEtOIC, 7-(phenylcarbamoylamino)-4-chloro-3-(2-isothiureidoethoxy)isocoumarin], for which the kinact/KI on human factor XIa (Table VIII, [I] 0.7-0.8 μM) turned out to be 104000 M⁻¹ s⁻¹; in experiment [2] (Table X, [I] 33-46 μM), 840 M⁻¹ s⁻¹; in experiment [3] (pH 7.5, Table X, biphasic inhibition, read-out: kobs/[I] (biphasic, first value)), 46000 M⁻¹ s⁻¹; in experiment [3] (pH 7.5, Table X, biphasic inhibition, read-out: kobs/[I] (biphasic, second value)), 5730 M⁻¹ s⁻¹; on human plasmin (Table IX, 0.01M CaCl2, pH 7.5, 25° C, [I] 8.3-41 μM), 32000 M⁻¹ s⁻¹.
